Laboratory results taken from US20220313656A1, “NEW CLASS OF ANTIBIOTICS HAVING LOW MIC-VALUES TOWARDS DIFFERENT STRAINS OF BACTERIA” (priority 2019, published 2022).
Where two headings read alike, the source gives them in different places.

Tests used:
[1] = tested on: S. aureus CC398; experiment: MIC, serial dilution method (CLSI); type: cell-based, Staphylococcus aureus
Protocol: (§1) These inoculums were each in diluted 1:100 in Müller Hinton (MH) broth (Sigma, Copenhagen, Denmark). From the diluted inoculums 100 μl was transferred to each well in a 96-well plate and mixed with the compound to be MIC determined. The plate was incubated for 24 hours at 37° C. (without shaking). The MIC value was determined as the lowest concentration in which no bacterial growth could be visually detected. All MIC determinations were done in duplicates. […] Since all derivatives are new, no control strains (with reference MIC values) were available.

[2] = tested on: S. aureus USA300; experiment: MIC, serial dilution method (CLSI); type: cell-based, Staphylococcus aureus
Protocol: as §1

[3] = tested on: Staphylococcus epidermidis; experiment: MIC and MBC determination; type: cell-based; details: Multiresistant clinical isolate
Protocol: (§2) MBC-value defines the antibiotic activities by the lowest concentration of the compound needed to kill at least 99.9% of the bacteria, also known as minimum bactericidal concentration (MBC) value.
(§3) The MIC for each compound for each bacteria strain was determined by the serial dilution method following the CLSI guidelines (CLSI Clinical and Laboratory Standards Institute: Performance Standards for Antimicrobial Susceptibility Testing: […] M100-S25. Wayne, Pa., USA; 2015.) All compounds were diluted in autoclaved H2O and stored at 4° C. […] Bacterial inoculums were prepared by inoculating 9 ml of H2O with bacterial colonies from agar plate (Oxoid, Roskilde Denmark) supplemented with bovine blood to a final yield a final density of 10^8 colony forming unit (CFU)/mL using a Sensititre™ Nephelometer (Thermo Scientific, Roskilde, Denmark). These inoculums were each in diluted 1:100 in Müller Hinton (MH) broth (Sigma, Copenhagen, Denmark). From the diluted inoculums 100 μl was transferred to each well in a 96-well plate and mixed with the compound to be MIC determined. The plate was incubated for 24 hours at 37° C. (without shaking). The MIC value was determined as the lowest concentration in which no bacterial growth could be visually detected. All MIC determinations were done in duplicates. […] Since all derivatives are new, no control strains (with reference MIC values) were available.

[4] = tested on: Cutibacterium acnes; experiment: MIC and MBC determination; type: cell-based; details: Multiresistant clinical isolate
Protocol: as §2, §3

[5] = tested on: E. faecalis; experiment: MIC, serial dilution method (CLSI); type: cell-based, Enterococcus faecalis
Protocol: as §1

[6] = tested on: E. coli APEC O2; experiment: MIC, serial dilution method (CLSI); type: cell-based, Escherichia coli
Protocol: as §1

[7] = tested on: E. faecium; experiment: MIC, serial dilution method (CLSI); type: cell-based, Enterococcus faecium
Protocol: as §1

[8] = tested on: Salmonella enteritidis; experiment: MIC, serial dilution method (CLSI); type: cell-based
Protocol: as §1

[9] = tested on: Streptococcus equi; experiment: MIC, serial dilution method (CLSI); type: cell-based
Protocol: as §1

[10] = tested on: Bacillus cereus; experiment: MIC, serial dilution method (CLSI); type: cell-based
Protocol: as §1

[11] = tested on: Listeria monocytogenes; experiment: MIC, serial dilution method (CLSI); type: cell-based
Protocol: as §1

[12] = tested on: Staphylococus pseudintermedius; experiment: MIC, serial dilution method (CLSI); type: cell-based, Staphylococcus pseudintermedius
Protocol: as §1

[13] = tested on: IPEC-J2 MDR1 cells; experiment: Apical to basolateral transport across IPEC-J2 MDR1 cell monolayers; type: in vitro ADME
Protocol: To assess the permeability of the compounds, the apical to basolateral flux/permeability of different experimental compounds across monolayers of IPEC-J2 MDR1 cells seeded and cultured on Transwell supports was investigated.
The compounds were dissolved in ultra pure water (MilliQ) to a concentration of 1 mM and further diluted in HBSS supplemented with 0.05% BSA and 10 mM HEPES, pH 7.4 to a final concentration of 10 μM.
For transport experiments, IPEC-J2 cells were seeded onto to permeable supports (T12, Corning cci-3401) and cultured for 15-17 days. Culturemedium was changed every other day in both the apical and basolateral chamber. On the day of transport, the cells were equilibrated to ambient temperatures and the transepithelial electrical resistance (TEER) was measured across the cell monolayers. Subsequently, the cell layers were washed twice with HBSS and the TEER was measured again. The transport experiment was started by replacing the HBSS in the apical chamber with HBSS solutions of the four experimental compounds. Over a period of two hours samples of 100 μL where taken from the basolateral chamber at t=15, 30, 45, 60, 90 and 120 minutes. All samples were stored at −20° C. until analysis by means of HPLC-MS. All four compounds were tested in triplicate. After the transport study was stopped, the cell layers were washed twice with HBSS and the TEER was measured.

[14] = tested on: Staphylococcus aureus MRSA 43484; experiment: Murine superficial MRSA skin infection model, topical treatment; type: in vivo; details: 2%, topical twice daily for 3 days, day 4, Balb/C mice
Protocol: This experiment is conducted to assess the effect of topical treatment of the compounds against MRSA. Compound S43 was evaluated for efficacy against Staphylococcus aureus MRSA 43484 in an murine skin infection model.
Treatment was performed twice daily for 3 days and sampling of skin biopsies was performed the day after last treatment. Treatment with Fucidic acid was included as a positive control and treatment with vehicle was included as a negative control.
48 Balb/C female mice—18-22 g—Taconic, Denmark, Staphylococcus aureus MRSA43484, Test compound A at 1 and 2% formulations, Test compound B at 2% formulation, Fucidin, 0.9% saline (sterile, SSI), 0.9% saline/Triton-x (sterile, SSI), Sterile water (SSI), 5% Horse Blood Agar plates (SSI), MRSA Brilliance agar plates, Nurofen® Junior (20 mg/ml, Novartis), Zoletil mix/Torbugesic (SSI/QC-BIO), Dermal curette—Miltex 335710.
Approximately 1 hour before inoculation, mice were treated orally with 45 μl nurofen (20 mg ibuprofen/ml corresponding to approximately […]) as pain relief. The mice were anaesthetized with 0.15 ml s.c. of Zoletil mix. The fur was removed from a 2×3-cm area on the back of each mouse by use of an electric shaver. Next, a razor was used to remove all the hair and hereafter the outer most layer of the skin was scraped off with a dermal curette to obtain a 1 cm^2 superficial skin lesion. 10 μl inoculum containing approximately 10^7 CFU was spread on the lesion. After the applied inoculum had dried, the mouse was placed in the cage and kept in a warming cabinet until fully awake.
Topical treatment of was initiated the day after inoculation, Day 1. Mice were treated twice daily (9 a.m and 3 p.m.) for three days. A volume of 50 μl was spread on the inoculated skin area.
Colony counts in the skin lesions were determined on day 1 (start of treatment) and day 4 (the day after completed treatment). The mice were sacrificed day 1 and 4 according to Table 1. The affected skin area was removed by a pair of scissors and tweezers, and collected in a tube for Dispomixer with 1 ml saline. The skin sample was homogenized in a Dispomixer. Each sample was serial diluted in saline/Triton-x and 20-μl spots were applied on MRSA Brillince agar plates. All agar plates were incubated 20-48 hrs at 35° C.

[15] = Staphylococcus aureus, MRSA, 24 h, read-out: MIC
[16] = Staphylococcus aureus, USA300, 24 h, read-out: MIC
[17] = Enterococcus faecalis, 24 h, read-out: MIC
[18] = Escherichia coli, APECO2, 24 h, read-out: MIC
[19] = Enterococcus faecium, 24 h, read-out: MIC
[20] = Salmonella enterica, ENTERITIDIS, 24 h, read-out: MIC
[21] = Staphylococcus pseudintermedius, 24 h, read-out: MIC
[22] = S. aureus CC398 (MRSA strain), MH broth, 24 hours at 37° C., set to 256 if growth at […]
[23] = S. aureus USA300, MH broth, 24 hours at 37° C., set to 256 if growth at […]
[24] = E. faecalis, MH broth, 24 hours at 37° C., set to 256 if growth at […]
[25] = E. coli APEC O2, MH broth, 24 hours at 37° C., set to 256 if growth at […]
[26] = E. faecium, MH broth, 24 hours at 37° C., set to 256 if growth at […]
[27] = Salmonella enteritidis, MH broth, 24 hours at 37° C., set to 256 if growth at […]
[28] = MH broth, 24 hours at 37° C., set to 256 if growth at […]
[29] = Staphylococus pseudintermedius, MH broth, 24 hours at 37° C., set to 256 if growth at […]

Compound	MIC [1, 15] [µg/mL]	MIC [2, 16] [µg/mL]	MIC [5, 17] [µg/mL]	MIC [6, 18] [µg/mL]	MIC [7, 19] [µg/mL]	MIC [8, 20] [µg/mL]	MIC ([9]; 24 h, read-out: MIC) [µg/mL]	MIC ([10]; 24 h, read-out: MIC) [µg/mL]	MIC ([11]; 24 h, read-out: MIC) [µg/mL]	MIC [12, 21] [µg/mL]	MIC [1, 22] [µg/mL]	MIC [2, 23] [µg/mL]	MIC [5, 24] [µg/mL]	MIC [6, 25] [µg/mL]	MIC [7, 26] [µg/mL]	MIC [8, 27] [µg/mL]	MIC [9, 28] [µg/mL]	MIC [10, 28] [µg/mL]	MIC [11, 28] [µg/mL]	MIC [12, 29] [µg/mL]	also measured
CCCCCCCCCCCC[N+](C)(C)C(C)CN1c2ccccc2Sc2ccccc21.[Br-] (stereo not shown) [Compound S18, N-(1-(10H-phenothiazin-10-yl)propan-2-yl)-N,N-dimethyldodecan-1-aminium bromide]	0.25	0.5	0.5	64	0.25	64	1	0.25	0.25	0.25											MBC [3]: 0.25 µg/mL; MIC [3]: 0.25 µg/mL; MBC [4]: 0.5 µg/mL; MIC [4]: 0.5 µg/mL
CC[N+]1(C)CCCCC1CCN1c2ccccc2Sc2ccc(SC)cc21.[Br-] (stereo not shown) [Compound S25, 1-ethyl-1-methyl-2-(2-(2-(methylthio)-10H-phenothiazin-10-yl)ethyl)piperidin-1-ium bromide]	4	2	8	256	8	256	2	2	2	2											permeability across IPEC-J2 MDR1 cell monolayers [13]: low
C=CC[N+]1(C)CCCCC1CCN1c2ccccc2Sc2ccc(SC)cc21.[Br-] (stereo not shown) [Compound S42, 1-allyl-1-methyl-2-(2-(2-(methylthio)-10H-phenothiazin-10-yl)ethyl)piperidin-1-ium bromide]	4	4	16	256	16	128	4	64	32	4											
COC(=O)CCCCC[N+](C)(C)C(C)CN1c2ccccc2Sc2ccccc21 (stereo not shown) [Promethazine 6-Methoxy-6-oxo-1-hexyl]											64	64	256	256	128	256	32	128	128	32	
CC(CN1c2ccccc2Sc2ccccc21)[N+](C)(C)Cc1ccccc1 (stereo not shown) [Promethazine Benzyl]											16	16	128	128	64	128	16	32	32	16	
CCOC(=O)CC[N+]1(C)CCCCC1CCN1c2ccccc2Sc2ccc(SC)cc21 (stereo not shown) [Thioridazine 3-Ethoxy-3-oxo-1-propyl]											32	32	32	256	32	128	8	4	4	16	
CSc1ccc2c(c1)N(CCC1CCCC[N+]1(C)Cc1ccccc1)c1ccccc1S2 (stereo not shown) [Thioridazine Benzyl]											2	2	8	128	8	64	2	2	4	2	
CC(=O)O[C@H]1C[C@@]2(C)[C@@H](C[C@@H](O)[C@H]3[C@@]4(C)CC[C@@H](O)[C@@H](C)[C@@H]4CC[C@@]32C)/C1=C(\CCC=C(C)C)C(=O)O [fucidic acid, reference compound]																					reduction of the CFU levels compared to the vehicle control [14]: 1.5 logo
